Measurements from patent US5750733A, “Hydroxy containing alkyl glycamides, low foaming detergent compositions comprising such and a process for their manufacture” (Lever Brothers Company, Division of Conopco, Inc., priority 1996, dated 1998).

Legend:
[1] = Krafft Point (Water Solubility Test); conditions: for Krafft Point (0.1%): 0.1% dispersion in water by weight; for water solubility (in words): 0.1% in water, Krafft point test
Procedure: The temperature at and above which surfactants begin to form micelles instead of precipitates is referred to as the Krafft point (Tk) and at this temperature the solubility of a surfactant becomes equal to its CMC (numerical value at which micelles are formed).
The Krafft point was measured by preparing 650 ml of a 0.1% dispersion of surfactant in water by weight. If the surfactant was soluble at room temperature, the solution was slowly cooled to 0° C. […] If it precipitated out of solution, the temperature at which precipitation occurs was taken as the Krafft point.
If the surfactant was insoluble at room temperature, the dispersion was slowly heated until the solution became homogeneous. It was then slowly cooled until precipitation occurred. The temperature at which the surfactant precipitates out of solution upon cooling was taken as the Krafft point.

[2] = Ross-Miles Foam Height of Various Sugar Based Surfactants; conditions: 0.1% surfactant, 50° C.; for Initial foam height / Final foam height (10 min.): 0 ppm hardness; for Final foam height (10 min.): after 10 minutes; for solubility in foam height test (in words): foam height cannot be measured if insoluble
Procedure: Since most of the foaming data on surfactants is typically obtained by the Ross-Miles Foam Height Assay (Ross, J. and Miles, G. D. Am Soc. for Testing material Method D1173-63 Philadelphia, Pa. (1953); Oil & Soap (1958)62:1260) the foaming ability of these surfactants were acquired using this method.
In the Ross-Miles method, 200 mL of a surfactant solution contained in a pipette of specified dimensions with a 2.9 -mm-i.d. orifice is allowed to fall 90 cm onto 50 mL of the same solution contained in a cylindrical vessel maintained at a given temperature by means of a water jacket. The height of the foam produced in the cylindrical vessel is read immediately after all the solution has run out of the pipette and then again after a given amount of time.
Using this method, the foam production (initial foam height in mm) and foam stability (final foam height after 10 minutes as measured in mm) were measured at 0.1% sugar surfactant concentration, 50° C. and 0 ppm (parts per million) hardness.

[3] = Micellization and Surface Tension Reduction; format: physicochemical; conditions: in water
Excerpt: The appearance and development of micelles are important since detergency (solubilization of soils) by dishwashing liquids, shampoos, detergents, etc., depend on the formation of these aggregates in solution.

[4] = Foaming of a Prototype Detergent Formulation (Ross Miles Foam Height Method); format: physicochemical; conditions: for Foam height of formulation, 5 min / Foam height of formulation, 10 min / Foam height of formulation, Initial: formulation with 4% of the compound, 0.4% formulation, 25° C., 18 FH
Excerpt: A prototype detergent formulation comprising a hydroxy containing alkyl glycamide surfactant was made and tested to an identical formulation containing a non-hydroxy containing alkyl glycamide. The formulation is as follows: […]
C10 -C14 Linear Alkylbenzene Sulfonate
C12 -C15 Alcohol Ethoxylate Containing 7 Units of
Dodecyl 5-Hydroxy D-Glucamide (or Comparative)
Sodium Tripolyphosphate 30
Sodium Carboxymethyl Cellulose

[5] = Clarity Enhancement of prototype detergent compositions with sodium lauryl sulfate; format: physicochemical; conditions: 3% compound with 15.0% sodium lauryl sulfate, room temperature; for Appearance: stored 6 months
Procedure: The prototype detergent composition is as follows:
Hydroxy Containing Alkyl
Glycamide (or Comparative)
Sodium Chloride 2.0% Viscosity Cobuilder
The above formulations were prepared by admixing the above ingredients in listed order and heating the mixture to about 80° C. with rapid stirring. The mixture was then cooled to about 40° C., placed in a clear jar and stored at room temperature for 6 months.

zein = system: zein
Procedure: The zein solubilization assay was developed to determine the biological effects of surfactants on the skin. The protein is normally insoluble in water, but can be brought into solution by interaction with surfactants. The extent of zein dissolved is related to the irritation potential (M. J. Schwinger, Kolloid-Z.Z. Poly., 233, 848, 1969). The greater the zein solubilization, the greater the irritation potential of that surfactant on the skin.
Thus, a 1% solution of surfactant (30 mls) was added to 1.5 g of zein and stirred at room temperature for 1 hours. Residual zein was collected and dried to constant weight. Differences between starting and residual weight were used to calculate % zein solubilized.

Row | SMILES | Krafft Point (0.1%) [1] [°C] | Initial foam height [2] [mm] | Final foam height (10 min.) [2] | Micellization and Surface Tension Reduction [3] | water solubility (in words) [1] | solubility in foam height test (in words) [2] | further results
1 | CCCCCCCCCCNC(=O)[C@H](O)[C@@H](O)[C@H](O)[C@H](O)CO [Decyl D-Gluconamide] | 75 | 199 | 6 mm | Yes |  |  | 
2 | CCCCCCCCCCCCNC(=O)[C@@H](O)[C@H](O)[C@@H](O)[C@@H](O)CO [Dodecyl L-Gluconamide] | > 100 |  |  | No | Insoluble | Insoluble | 
3 | CCCCCCCCNC(=O)[C@H](O)[C@@H](O)[C@H](O)[C@H](O)CO [Octyl D-Gluconamide] | 12 | 0 | 0 mm | Yes |  |  | 
4 | CCCCCCCCCCCC(=O)N(C)C[C@H](O)[C@@H](O)[C@H](O)[C@H](O)CO [Dodecyl Methyl D-Glucamide, dodecyl methyl D-glucamide] | 45 | 173 | 157 mm | Yes |  |  | Foam height of formulation, 5 min [4]: 110 mm; Foam height of formulation, 10 min [4]: 100 mm; Foam height of formulation, Initial [4]: 135 mm
5 | CCCCCCCC(O)CCCC(=O)NC[C@H](O)[C@@H](O)[C@H](O)[C@H](O)CO (stereo partly drawn) [Dodecyl 5-Hydroxy D-Glucamide, dodecyl 5-hydroxy D-glucamide] | 41 | 67 | Negligible | Yes |  |  | Appearance ([5]; listed as C12 5-Hydroxy D-Glucamide): Clear; Appearance ([5]; listed as dodecyl 5-hydroxy glucamide): stay in solution; % Zein Solubilized (zein): 7%; mildness / zein solubilization (in words) (zein): less zein solubilization; foaming of formulation (in words) ([4]; compared to identical formulation with dodecyl methyl D-glucamide): low foaming compared to identical formulations containing dodecyl methyl D-glucamide; Foam height of formulation, 5 min [4]: 94 mm; Foam height of formulation, 10 min [4]: 75 mm; Foam height of formulation, Initial [4]: 125 mm
6 | CN(C[C@H](O)[C@@H](O)[C@H](O[C@H]1O[C@H](CO)[C@@H](O)[C@H](O)[C@H]1O)[C@H](O)CO)C(=O)CCCCCCCCCCCO [Dodecyl 12-Hydroxy Methyl D-Maltamide, dodecyl 12-hydroxy methyl D-maltamide] | < 21 | 57 | Negligible | Yes |  |  | 
7 | CCCCCCCC(O)CCC(=O)NC[C@H](O)[C@@H](O)[C@H](O)[C@H](O)CO (stereo partly drawn) [Undecyl 4-Hydroxy D-Glucamide, undecyl-4-hydroxy D-glucamide] | 37 | 60 | Negligible | Yes |  |  | 

More lines, main results first:

Row | Krafft Point (0.1%) [1] [°C] | Initial foam height [2] [mm] | Final foam height (10 min.) [2] | Micellization and Surface Tension Reduction [3] | water solubility (in words) [1] | solubility in foam height test (in words) [2] | SMILES | further results
8 | > 100 |  |  | No | Insoluble | Insoluble | CCCCCCCCCCCCCCCCNC(=O)[C@H](O)[C@@H](O)[C@H](O)[C@H](O)CO [Hexadecyl D-Gluconamide] | 
9 | > 100 |  |  | No | Insoluble | Insoluble | CCCCCCCCCCCCNC(=O)[C@H](O)[C@@H](O)[C@H](O)[C@H](O)CO [Dodecyl D-Gluconamide] | 
10 | > 100 |  |  | No | Insoluble | Insoluble | CCCCCCCCCCCCCCNC(=O)[C@H](O)[C@@H](O)[C@H](O)[C@H](O)CO [Tetradecyl D-Gluconamide] | 
11 | > 100 |  |  | No | Insoluble | Insoluble | CCCCCCCCCCCCCCCCCC(=O)NC[C@H](O)[C@@H](O)[C@H](O)[C@H](O)CO [Octadecyl D-Glucamide] | 
12 | > 100 |  |  | No | Insoluble | Insoluble | CCCCCCCCCCCC(=O)NC[C@H](O)[C@@H](O)[C@H](O)[C@H](O)CO [Dodecyl D-Glucamide, dodecyl D-glucamide] | Time to precipitation [5]: ≤ 3 days; Appearance [5]: Precipitate; Time to precipitation ([5]; listed as C12 D-Glucamide): 3 days
13 | > 100 |  |  | No | Insoluble | Insoluble | CCCCCCCCCCCCCCCC(=O)NC[C@H](O)[C@@H](O)[C@H](O)[C@H](O)CO [Hexadecyl D-Glucamide] | 
14 | > 100 |  |  | No | Insoluble | Insoluble | CCCCCCCCCCCCCC(=O)NC[C@H](O)[C@@H](O)[C@H](O)[C@H](O)CO [Tetradecyl D-Glucamide] | 
